Data on 27 molecules can be found in patent US10722514B2 (FLX Bio, Inc., priority 2017, dated 2020).

Where a name gives a salt, the structure may show the parent alone.

The term IC50 denotes the concentration at which inhibition is half-maximal.

In the assay the target is T1, recombinant full-length USP7 (Homo sapiens, UniProt Q93009).
T1 construct: A 25 μl reaction volume containing recombinant full-length USP7 (62 pM)
Briefly: USP7-mediated ubiquitin-rhodamine cleavage assay. It counts as biochemical. The settings on record: recombinant full-length USP7 62 pM; ubiquitin-rhodamine 100 nM; 30-minute pre-incubation, 1 hour reaction at room temperature; read-out: Potency (USP7 IC50). A digest of the protocol: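 Full-length recombinant USP7 (62 pM) in 20 mM HEPES pH 7.3, 150 mM NaCl, 1 mM TCEP, 125 μg/ml BSA, 1% DMSO, preincubated with compound 30 min at RT. Ubiquitin-rhodamine (100 nM final) cleaved 1 h at RT in the dark, stopped with acetic acid; rhodamine fluorescence read, IC50 by 4-parameter nonlinear fit.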

T1 sequence (Q93009 whole entry): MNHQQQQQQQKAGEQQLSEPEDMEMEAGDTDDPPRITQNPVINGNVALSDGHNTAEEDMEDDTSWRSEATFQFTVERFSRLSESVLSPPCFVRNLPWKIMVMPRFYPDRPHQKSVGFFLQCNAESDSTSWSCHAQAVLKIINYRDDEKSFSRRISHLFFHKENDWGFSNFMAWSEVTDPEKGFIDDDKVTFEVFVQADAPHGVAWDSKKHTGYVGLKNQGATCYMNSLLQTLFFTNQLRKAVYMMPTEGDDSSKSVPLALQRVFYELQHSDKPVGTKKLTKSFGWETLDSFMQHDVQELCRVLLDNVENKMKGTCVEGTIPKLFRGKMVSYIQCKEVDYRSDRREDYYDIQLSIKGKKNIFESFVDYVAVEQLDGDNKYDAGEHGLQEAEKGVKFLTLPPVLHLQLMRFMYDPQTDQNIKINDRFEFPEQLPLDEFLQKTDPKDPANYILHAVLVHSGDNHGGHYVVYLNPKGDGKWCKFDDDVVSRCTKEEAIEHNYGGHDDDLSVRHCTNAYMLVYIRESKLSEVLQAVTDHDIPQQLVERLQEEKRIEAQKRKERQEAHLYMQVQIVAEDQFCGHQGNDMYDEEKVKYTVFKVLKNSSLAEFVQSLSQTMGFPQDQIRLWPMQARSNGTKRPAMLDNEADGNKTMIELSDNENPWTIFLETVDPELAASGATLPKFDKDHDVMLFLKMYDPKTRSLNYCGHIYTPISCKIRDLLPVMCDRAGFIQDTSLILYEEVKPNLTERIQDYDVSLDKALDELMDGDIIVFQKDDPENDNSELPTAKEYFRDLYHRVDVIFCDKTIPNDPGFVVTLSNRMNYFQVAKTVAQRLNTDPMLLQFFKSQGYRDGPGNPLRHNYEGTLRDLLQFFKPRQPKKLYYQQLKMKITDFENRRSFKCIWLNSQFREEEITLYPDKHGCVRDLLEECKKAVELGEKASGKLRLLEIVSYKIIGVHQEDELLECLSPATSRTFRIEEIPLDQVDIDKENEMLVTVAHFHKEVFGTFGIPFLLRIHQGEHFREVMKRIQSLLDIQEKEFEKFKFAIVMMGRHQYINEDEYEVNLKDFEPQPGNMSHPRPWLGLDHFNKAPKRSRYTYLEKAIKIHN

Consider `Cc1c(F)c(Cl)cc(-c2ccnc3cc(Cn4c(=O)ccn(C)c4=O)sc23)c1O[C@H]1CCCNC1` [Example 435, 3-[[7-[5-chloro-4-fluoro-3-methyl-2-[[(3S)-3-piperidyl]oxy]phenyl]thieno[3,2-b]pyridin-2-yl]methyl]-1-methyl-pyrimidine-2,4-dione dihydrochloride], for which the IC50 fell in the range of 1 to 10 µM.
To `Cc1cc(Cl)cc(-c2ccnc3cc(CN4C(=O)C5C(C4=O)C5(C)C)sc23)c1O[C@H]1CCCNC1` (stereo partly drawn) [Example 436, 3-[[7-[5-chloro-3-methyl-2-[[(3S)-3-piperidyl]oxy]phenyl]thieno[3,2-b]pyridin-2-yl]methyl]-6,6-dimethyl-3-azabicyclo[3.1.0]hexane-2,4-dione dihydrochloride] belongs < 1 µM.
Regarding `Cc1cc(Cl)cc(-c2ccnc3cc(CN4C(=O)CCC4=O)sc23)c1OC1CC(N)C1` (stereo not drawn) [Example 437, 1-[[7-[2-(3-aminocyclobutyoxy)-5-chloro-3-methyl-phenyl]thieno[3,2-b]pyridin-2-yl]methyl]pyrrolidine-2,5-dione; 2,2,2-trifluoroacetic acid], the IC50 was < 1 µM.
The value for `Cc1cc(Cl)cc(-c2ccnc3cc(CN4C(=O)CCC4=O)sc23)c1OC1CC(N)C1` (stereo not drawn) [Example 438, 1-[[7-[2-(3-aminocyclobutoxy)-5-chloro-3-methyl-phenyl]thieno[3,2-b]pyridin-2-yl]methyl]pyrrolidine-2,5-dione; 2,2,2-trifluoroacetic acid] was < 1 µM.
The value for `Cc1cc(Cl)cc(-c2ccnc3cc(CN4C(=O)CCC4=O)sc23)c1OC1CC2(CCN2)C1` (stereo not drawn) [Example 439, 1-[[7-[2-(1-azaspiro[3.3]heptan-6-yloxy)-5-chloro-3-methyl-phenyl]thieno[3,2-b]pyridin-2-yl]methyl]pyrrolidine-2,5-dione; 2,2,2-trifluoroacetic acid] was < 1 µM.
To `CCn1ccc(=O)n(Cc2cc3ncnc(-c4cc(Cl)cc(C)c4O[C@H]4CCCNC4)c3s2)c1=O` [Example 440, 3-[[4-[5-chloro-3-methyl-2-[[(3S)-3-piperidyl]oxy]phenyl]thieno[3,2-d]pyrimidin-6-yl]methyl]-1-ethyl-pyrimidine-2,4-dione; 2,2,2-trifluoroacetic acid] belongs < 1 µM; to `Cc1cc(Cl)cc(-c2ccnc3cc(Cn4c(=O)ccn(C)c4=O)sc23)c1O[C@@H]1CNC[C@@H]1C(F)(F)F` [Example 441, 3-[[7-[5-chloro-3-methyl-2-[(3S,4S)-4-(trilfuoromethyl)pyrrolidin-3-yl]oxy-phenyl]thieno[3,2-b]pyridin-2-yl]methyl]-1-methyl-pyrimidine-2,4-dione], < 1 µM.
Consider `Cc1cc(Cl)cc(-c2ccnc3cc(Cn4c(=O)ccn(C)c4=O)sc23)c1OC1CNCC(F)(F)C1` (stereo not drawn) [Example 442, 3-[[7-[5-chloro-2-[(5,5-difluoro-3-piperidyl)oxy]-3-methyl-phenyl]thieno[3,2-b]pyridin-2-yl]methyl]-1-methyl-pyrimidine-2,4-dione; 2,2,2-trifluoroacetic acid], for which the IC50 was < 1 µM.
`Cc1cc(Cl)cc(-c2ccnc3cc(CN4C(=O)CCC4=O)sc23)c1OC1CC(C)(N)C1` (stereo not drawn) [Example 443, 1-[[7-[2-(3-amino-3-methyl-cyclobutoxy)-5-chloro-3-methyl-phenyl]thieno[3,2-b]]pyridin-2-yl]methyl]pyrrolidine-2,5-dione dihydrochloride]: the IC50 was < 1 µM.
The value for `Cc1cc(Cl)cc(-c2ccnc3cc(CN4C(=O)CCC4=O)sc23)c1OC1CC(C)(N)C1` (stereo not drawn) [Example 444, 1-[[7-[2-(3-amino-3-methyl-cyclobutoxy)-5-chloro-3-methyl-phenyl]thieno[3,2-b]pyridin-2-yl]methyl]pyrrolidine-2,5-dione dihydrochloride] was < 1 µM.
To `Cc1cc(C(F)(F)F)cc(-c2ccnc3cc(Cn4c(=O)ccn(C)c4=O)sc23)c1O[C@H]1CCCNC1` [Example 445] belongs < 1 µM; to `Cc1cc(C(F)(F)F)cc(-c2ccnc3cc(Cn4c(=O)ccn(C)c4=O)sc23)c1OC1CCNCC1` [Example 446, 1-methyl-3-[[7-[3-methyl-2-(4-piperidyloxy)-5-(trifluoromethyl)phenyl]thieno[3,2-b]pyridin-2-yl]methyl]pyrimidine-2,4-dione], < 1 µM.
To `Cc1cc(Cl)cc(-c2ccnc3cc(Cn4c(=O)ccn(C(C)C)c4=O)sc23)c1O[C@H]1CCCNC1` [Example 447, 3-[[7-[5-chloro-3-methyl-2-[[(3S)-3-piperidyl]oxy]phenyl]thieno[3,2-b]pyridin-2-yl]methyl]-1-isopropyl-pyrimidine-2,4-dione] belongs < 1 µM; to `Cc1cc(Cl)cc(-c2ccnc3cc(CN4C(=O)CCC4=O)sc23)c1O[C@H]1CCCN(C)C1` [Example 448, 1-[[7-[5-chloro-3-methyl-2-[[(3S)-1-methyl-3-piperidyl]oxy]phenyl]thieno[3,2-b]pyridin-2-yl]methyl]pyrrolidine-2,5-dione], < 1 µM.
Take `Cc1cc(Cl)cc(-c2ccnc3cc(CN4C(=O)CCC4=O)sc23)c1O[C@H]1CCCN(C2COC2)C1` [Example 449, 1-[[7-[5-chloro-3-methyl-2-[[(3S)-1-(oxetan-3-yl)-3-piperidyl]oxy]phenyl]thieno[3,2-b]pyridin-2-yl]methyl]pyrrolidine-2,5-dione]: the IC50 was < 1 µM.
To `Cc1cc(Cl)cc(-c2ccnc3cc(CN4C(=O)CCC4=O)sc23)c1OC1CCOCC1` [Example 450, 1-[[7-(5-chloro-3-methyl-2-tetrahydropyran-4-yloxy-phenyl)thieno[3,2-b]pyridin-2-yl]methyl]pyrrolidine-2,5-dione] belongs < 1 µM; to `Cc1cc(Cl)cc(-c2ccnc3cc(Cn4c(=O)ccn(C(C)C)c4=O)sc23)c1O[C@@H]1CNC[C@@H]1F` [Example 451, 3-[[7-[5-chloro-2-[(3R,4S)-4-fluoropyrrolidin-3-yl]oxy-3-methyl-phenyl]thieno[3,2-b]pyridin-2-yl]methyl]-1-isopropyl-pyrimidine-2,4-dione], < 1 µM; to `CCn1ccc(=O)n(Cc2cc3nccc(-c4cc(Cl)cc(C)c4O[C@@H]4CNC[C@@H]4F)c3s2)c1=O` [Example 452, 3-[[7-[5-chloro-2-[(3R,4S)-4-fluoropyrrolidin-3-yl]oxy-3-methyl-phenyl]thieno[3,2-b]pyridin-2-yl]methyl]-1-ethyl-pyrimidine-2,4-dione], < 1 µM.
To `Cc1cc(Cl)cc(-c2ccnc3cc(Cn4c(=O)ccn(C)c4=O)sc23)c1O[C@H]1CCNC[C@H]1C` [Example 453] belongs < 1 µM; to `Cc1cc(C#N)cc(-c2ccnc3cc(Cn4c(=O)ccn(C)c4=O)sc23)c1OC1CCNCC1` [Example 454, 3-methyl-5-[2-[(3-methyl-2,6-dioxo-pyrimidin-1-yl)methyl]thieno[3,2-b]pyridin-7-yl]-4-(4-piperidyloxy)benzonitrile], < 1 µM; to `CCN1CC[C@@H](Oc2c(C)cc(Cl)cc2-c2ccnc3cc(Cn4c(=O)ccn(C)c4=O)sc23)[C@@H](C)C1` [Example 455, 3-[[7-[5-chloro-2-[[(3S,4R)-1-ethyl-3-methyl-4-piperidyl]oxy]-3-methyl-phenyl]thieno[3,2-b]pyridin-2-yl]methyl]-1-methyl-pyrimidine-2,4-dione], < 1 µM.
For `Cc1cc(C(F)(F)F)cc(-c2ccnc3cc(Cn4c(=O)ccn(C)c4=O)sc23)c1O[C@@H]1CC[C@@H](N)C1` [Example 456, 3-[[7-[2-[(1R,3R)-3-aminocyclopentoxy]-3-methyl-5-(trifluoromethyl)phenyl]thieno[3,2-b]pyridin-2-yl]methyl]-1-methyl-pyrimidine-2,4-dione dihydrochloride], the IC50 is < 1 µM.
To `Cc1cc(Cl)cc(-c2ccnc3cc(Cn4c(=O)ccn(C)c4=O)sc23)c1O[C@@H]1CCN(C)C[C@@H]1C` [Example 457, 3-[[7-[5-chloro-2-[[(3S,4R)-1,3-dimethyl-4-piperidyl]oxy]-3-methyl-phenyl]thieno[3,2-b]pyridin-2-yl]methyl]-1-methyl-pyrimidine-2,4-dione] belongs < 1 µM; to `Cc1cc(Cl)cc(-c2ccnc3cc(Cn4c(=O)ccn(C)c4=O)sc23)c1O[C@@H]1CN(C)C[C@@H]1F` [Example 458, 3-[[7-[5-chloro-2-[(3R,4S)-4-fluoro-1-methyl-pyrrolidin-3-yl]oxy-3-methyl-phenyl]thieno[3,2-b]pyridin-2-yl]methyl]-1-methyl-pyrimidine-2,4-dione; 2,2,2-trifluoroacetic acid], < 1 µM.
The value for `CCN1C[C@H](F)[C@H](Oc2c(C)cc(Cl)cc2-c2ccnc3cc(Cn4c(=O)ccn(C)c4=O)sc23)C1` [Example 459, 3-[[7-[5-chloro-2-[(3R,4S)-1-ethyl-4-fluoro-pyrrolidin-3-yl]oxy-3-methyl-phenyl]thieno[3,2-b]pyridin-2-yl]methyl]-1-methyl-pyrimidine-2,4-dione; 2,2,2-trifluoroacetic acid] was < 1 µM; that for `Cc1cc(C(F)(F)F)cc(-c2ccnc3cc(Cn4c(=O)c(F)cn(C)c4=O)sc23)c1O[C@H]1CCCNC1` [Example 460, 5-fluoro-1-methyl-3-[[7-[3-methyl-2-[[(3S)-3-piperidyl]oxy]-5-(trifluoromethyl)phenyl]thieno[3,2-b]pyridin-2-yl]methyl]pyrimidine-2,4-dione] was < 1 µM; that for `Cc1cc(Cl)cc(-c2ccnc3cc(Cn4c(=O)ccn(C)c4=O)sc23)c1OC1CC2CC1N(CCO)C2` (stereo not drawn) [Example 461, 3-[[7-[5-chloro-2-[[3-(2-hydroxyethyl)-3-azabicyclo[2.2.1]heptan-5-yl]oxy]-3-methyl-phenyl]thieno[3,2-b]pyridin-2-yl]methyl]-1-methyl-pyrimidine-2,4-dione] was < 1 µM.
